Assay [1] relates to HIF2α-HIF1β activity in 786-O HRE-luc2P cells. In words: Cellular mechanistic assay: 786-O HRE-luc2P reporter assay. Type of assay: cell-based. The following applies: Homo sapiens, 786-0, 48 h, read-out: HRE-luc2P reporter assay IC50. The method, then:
This reporter assay was designed to monitor binding of the HIF2α-HIF1β complex to specific DNA fragment called hypoxia response element (HRE) in physiologically relevant cell line. […] HRE is present in promoters of various genes regulated by hypoxia inducible factors. […] As a result, this reporter assay allows monitoring of HIF2α-HIF1β activity by determining the activity of produced luciferase. Cell culture is performed in RPMI media supplemented with 10% FBS, Sodium Pyruvate, Penicillin/Streptomycin, Glutamine, 200 μg/ml Hygromycin Gold.
The assay was performed in 384 well white, opaque microtiterplate with transparent bottom (Greiner Bio-one, Frickenhausen). […] 50 μl of cell suspension (2000 cells) per well were dispensed in microtiter plates and incubated over night at 37° C. in a 5% CO2 incubator. Compounds were added with Labcyte Echo dispenser (fc 0.2% DMSO, 9 concentrations dilution raw starting at 10 μM). Plates were incubated for 48 h at 37° C. in a 5% CO2 incubator. After this 45 μl of pre-warmed ONE-Glo™ EX Reagent were added per well. Plates were placed on an orbital shaker at 1200 rpm for 3 minutes. Plates were sealed and luminescence was measured a Tecan Spark 20M microplate reader (end-point measurement with 0.1 second reading time). Values were normalized to DMSO ctrl and wells without cells (only medium ctrl). Decrease in luminescence directly correlates with inhibition of HIF2α activity. IC50 values and % effect values were calculated by GraphPad Prism.
Background: A reporter such as luciferase makes a cellular process visible.

The target in assay [2] is T1, interaction of the PAS B domains of HIF-2α and HIF-1β (Homo sapiens, UniProt Q99814).
T1 construct: His6Gb1-TEV-GEFKGL-HIF2α (240-350aa)-G
T1 sequence (Q99814 240-350): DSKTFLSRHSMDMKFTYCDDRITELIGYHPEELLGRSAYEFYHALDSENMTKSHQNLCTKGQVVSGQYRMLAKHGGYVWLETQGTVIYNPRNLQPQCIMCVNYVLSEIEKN
In words: Alphascreen protein protein interaction assay. The format is biochemical. The method, then:
Alphascreen Protein Protein Interaction Assay:
For the assessment of functional disruption of the interaction of the PAS B domains of HIF-2α and HIF-1β an AlphaScreen assay was set-up. The assay was performed in 384 well light gray Perkin Elmer microtiter plates in a total volume of 7 μl. […] The detection of the protein protein interaction was performed by adding AlphaLISA® Anti-FLAG Acceptor beads (fc 20 μg/ml) and AlphaScreen® Nickel Chelate Donor beads (fc 9 μg/ml) (both Perkin Elmer) and the reaction was incubated for 240 min at 23° C. in the dark. If donor and acceptor beads get in close proximity to each other caused by interaction of HIF2alpha PAS B with HIF-1ß PAS B domain it results in a luminescence signal at 615 nm after excitation at 680 nm. The PPI disruption activity of a compound was calculated directly from the loss in Alphascreen signal. The AlphaScreen signal was measured with an Envision multimode reader (Perkin Elmer LAS Germany GmbH). The control value used was the inhibitor-free reaction. The pharmacological zero value used was determined in the absence of HIF-11. The inhibitory values (IC50) were calculated using Assay analyser from GeneData.
(In Alpha technology, singlet oxygen from a donor bead excites a nearby acceptor bead.)

The target of the next assay is T2, HIF2a (240-350)-G (Homo sapiens, UniProt Q99814).
T2 construct: The protein, HIF2a (240-350)-G, was prepared by recombinant overexpression; made in house
T2 sequence (Q99814 240-350): as above
Put plainly: ITC. The format is binding. The method, then:
ITC measurements were performed with a VP-ITC microcalorimeter from MicroCal/Malvern (UK). For all titration experiments the protein and the respective compounds were formulated in 30 mM HEPES buffer pH 7.5, 150 mM NaCl and 5 mM ß-mercaptoethanol. The protein, HIF2a (240-350)-G, was prepared by recombinant overexpression and multistep chromatography purification. Compounds were used from concentrated DMSO stock solutions. The final protein concentration in the injection syringe was 100 μM. Ligand stock solutions of 10 mM in DMSO were diluted to 10 μM concentrations with buffer and loaded into the sample cell. All buffers were adjusted to a final concentration of 1% (v/v) DMSO. Both, the titrate and titrant solutions were degassed prior to loading the calorimeter cell and injection syringe. […] The integrated heat data were fit with a one-site binding model to determine the apparent values for affinity, enthalpy and stoichiometry of binding.

SMILES strings stand for the structures.

This note sets out measurements from patent US11613526B2, “Thiophene derivatives” (priority 2018, dated 2023).

With `CS(=O)(=O)c1sc(-c2cncc(Cl)c2)c2c1[C@H](O)C(F)(F)CC2` [Example 56a, (4S)-1-(5-chloropyridin-3-yl)-5,5-difluoro-3-methanesulfonyl-4,5,6,7-tetrahydro-2-benzothiophen-4-ol], the results for the IC50 in assay [1] and in assay [2] were greater than 1000 nM and 50 to 1000 nM, respectively. Regarding `COc1ncc(-c2sc(S(C)(=O)=O)c3c2CCC(F)(F)[C@H]3O)cc1Cl` [Example 65a, (4S)-1-(5-chloro-6-methoxypyridin-3-yl)-5,5-difluoro-3-methanesulfonyl-4,5,6,7-tetrahydro-2-benzothiophen-4-ol], the IC50 (commonly the point on the concentration scale where inhibition reaches its midpoint) in assay [2] is greater than 1000 nM. In turn, `CS(=O)(=O)c1sc(-c2cncc(C#N)c2)c2c1[C@H](O)C(F)(F)CC2` [Example 59a, 5-[(4S)-5,5-difluoro-4-hydroxy-3-methanesulfonyl-4,5,6,7-tetrahydro-2-benzothiophen-1-yl]pyridine-3-carbonitrile] registered an IC50 in assay [2] greater than 1000 nM. Turning to `Cn1nc(C(F)(F)F)cc1-c1sc(S(C)(=O)=O)c2c1CCC(F)(F)[C@H]2O` [Example 46a, (4S)-5,5-difluoro-3-methanesulfonyl-1-[1-methyl-3-(trifluoromethyl)-1H-pyrazol-5-yl]-4,5,6,7-tetrahydro-2-benzothiophen-4-ol], the IC50 in assay [1] and in assay [2] was greater than 1000 nM each time. `Cn1cc(-c2sc(S(C)(=O)=O)c3c2CC(F)(F)[C@H]3O)cn1` [Example 35a, (4S)-5,5-difluoro-3-methanesulfonyl-1-(1-methyl-1H-pyrazol-4-yl)-4H,5H,6H-cyclopenta[c]thiophen-4-ol] yielded an IC50 in assay [2] greater than 1000 nM. On the same count and under the same terms, then `Cn1nc(C#N)cc1-c1sc(S(C)(=O)=O)c2c1CCC(F)(F)[C@H]2O` [Example 51a, 5-[(4S)-5,5-difluoro-4-hydroxy-3-methanesulfonyl-4,5,6,7-tetrahydro-2-benzothiophen-1-yl]-1-methyl-1H-pyrazole-3-carbonitrile], with greater than 1000 nM; and `Cc1cc(-c2sc(S(C)(=O)=O)c3c2CC(F)(F)[C@H]3O)n(C)n1` [Example 49a, (4S)-1-(1,3-dimethyl-1H-pyrazol-5-yl)-5,5-difluoro-3-methanesulfonyl-4H,5H,6H-cyclopenta[c]thiophen-4-ol], with greater than 1000 nM. With `CS(=O)(=O)c1sc(-c2cncc(C(F)(F)F)c2)c2c1[C@H](O)C(F)(F)CC2` [Example 62a, (4S)-5,5-difluoro-3-methanesulfonyl-1-[5-(trifluoromethyl)pyridin-3-yl]-4,5,6,7-tetrahydro-2-benzothiophen-4-ol], the results for the IC50 in assay [1] and in assay [2] were greater than 1000 nM and 50 to 1000 nM, respectively. As to `CS(=O)(=O)c1sc(-c2cncc(F)c2)c2c1[C@H](O)C(F)(F)CC2` [Example 58a, (4S)-5,5-difluoro-1-(5-fluoropyridin-3-yl)-3-methanesulfonyl-4,5,6,7-tetrahydro-2-benzothiophen-4-ol], in assay [2], the half-inhibitory concentration (IC50) is greater than 1000 nM.

`Cn1nccc1-c1sc(S(C)(=O)=O)c2c1CC(F)(F)[C@H]2O` [Example 47a, (4S)-5,5-difluoro-3-methanesulfonyl-1-(1-methyl-1H-pyrazol-5-yl)-4H,5H,6H-cyclopenta[c]thiophen-4-ol]: the IC50 in assay [1] and in assay [2] was greater than 1000 nM in each case. The compound `Cn1cc(-c2sc(S(C)(=O)=O)c3c2CCC(F)(F)[C@H]3O)cn1` [Example 40a, (4S)-5,5-difluoro-3-methanesulfonyl-1-(1-methyl-1H-pyrazol-4-yl)-4,5,6,7-tetrahydro-2-benzothiophen-4-ol] showed a half-maximal inhibitory concentration (IC50) in assay [2] greater than 1000 nM. For `CS(=O)(=O)c1sc(-c2ccccc2F)c2c1[C@H](O)C(F)(F)C2` [Example 27a, (4S)-5,5-difluoro-1-(2-fluorophenyl)-3-methanesulfonyl-4H,6H-cyclopenta[c]thiophen-4-ol], at HIF2a (240-350)-G, the Kd (in general, a measure of binding affinity in units of concentration) is greater than 1000 nM. Further, the concentration for half-maximal inhibition (IC50) in assay [2] was greater than 1000 nM. Take `Cn1nc(-c2sc(S(C)(=O)=O)c3c2CCC(F)(F)[C@H]3O)cc1C#N` [Example 54a, 3-[(4S)-5,5-difluoro-4-hydroxy-3-methanesulfonyl-4,5,6,7-tetrahydro-2-benzothiophen-1-yl]-1-methyl-1H-pyrazole-5-carbonitrile]: the 50% inhibitory concentration (IC50) in assay [1] and in assay [2] was greater than 1000 nM throughout. For `CS(=O)(=O)c1sc(-c2cccc(F)c2)c2c1[C@H](O)C(F)(F)C2` [Example 28a, (4S)-5,5-difluoro-1-(3-fluorophenyl)-3-methanesulfonyl-4H,6H-cyclopenta[c]thiophen-4-ol], the dissociation constant Kd at HIF2a (240-350)-G was greater than 1000 nM. The IC50 in assay [2] was greater than 1000 nM.

Compound `CS(=O)(=O)c1sc(-c2ccccc2)c2c1[C@H](O)C(F)(F)C2` [Example 25a, (4S)-5,5-difluoro-3-methanesulfonyl-1-phenyl-4H,6H-cyclopenta[c]thiophen-4-ol] had a dissociation constant (Kd) on HIF2a (240-350)-G greater than 1000 nM. In assay [2], the concentration for half-maximal inhibition (IC50) is greater than 1000 nM. Take `CS(=O)(=O)c1sc(-c2cccc(F)c2)c2c1[C@H](O)C(F)(F)CC2` [Example 37a, (4S)-5,5-difluoro-1-(3-fluorophenyl)-3-methanesulfonyl-6,7-dihydro-4H-2-benzothiophen-4-ol]: the Kd on HIF2a (240-350)-G was greater than 1000 nM. The IC50 in assay [1] and in assay [2] was greater than 1000 nM throughout.

Turning to `CS(=O)(=O)c1sc(-c2cnc(Cl)c(F)c2)c2c1[C@H](O)C(F)(F)CC2` [Example 61a, (4S)-1-(6-chloro-5-fluoropyridin-3-yl)-5,5-difluoro-3-methanesulfonyl-4,5,6,7-tetrahydro-2-benzothiophen-4-ol], the IC50 is greater than 1000 nM in assay [1] and 50 to 1000 nM in assay [2]. In assay [2], `Cc1cncc(-c2sc(S(C)(=O)=O)c3c2CCC(F)(F)[C@H]3O)c1` [Example 57a, (4S)-5,5-difluoro-3-methanesulfonyl-1-(5-methylpyridin-3-yl)-4,5,6,7-tetrahydro-2-benzothiophen-4-ol] gave a half-maximal inhibitory concentration (IC50) greater than 1000 nM.

As for `CS(=O)(=O)c1sc(-c2ccccc2)c2c1[C@H](O)CCC2` [Example 36a, (4R)-3-methanesulfonyl-1-phenyl-4,5,6,7-tetrahydro-2-benzothiophen-4-ol], the IC50 in assay [1] and in assay [2] was greater than 1000 nM in each case. `CS(=O)(=O)c1sc(-c2cc(F)nc(Cl)c2)c2c1[C@H](O)C(F)(F)CC2` [Example 63a, (4S)-1-(2-chloro-6-fluoropyridin-4-yl)-5,5-difluoro-3-methanesulfonyl-4,5,6,7-tetrahydro-2-benzothiophen-4-ol] showed a Kd at HIF2a (240-350)-G of 50 to 1000 nM. For the same compound, the IC50 in assay [1] is greater than 1000 nM; in assay [2], less than 50 nM.

Regarding `Cc1nn(C)cc1-c1sc(S(C)(=O)=O)c2c1CCC(F)(F)[C@H]2O` [Example 39a, (4S)-1-(1,3-dimethyl-1H-pyrazol-4-yI)-5,5-difluoro-3-methanesulfonyl-4,5,6,7-tetrahydro-2-benzothiophen-4-ol], the half-maximal inhibitory concentration (IC50) in assay [2] is greater than 1000 nM.

In the case of `Cc1cc(-c2sc(S(C)(=O)=O)c3c2CCC(F)(F)[C@H]3O)n(C)n1` [Example 50a, (4S)-1-(1,3-dimethyl-1H-pyrazol-5-yl)-5,5-difluoro-3-methanesulfonyl-4,5,6,7-tetrahydro-2-benzothiophen-4-ol], the half-inhibitory concentration (IC50) in assay [2] is greater than 1000 nM. As to `Cn1nc(C(F)(F)F)cc1-c1sc(S(C)(=O)=O)c2c1CC(F)(F)[C@H]2O` [Example 48a, (4S)-5,5-difluoro-3-methanesulfonyl-1-[1-methyl-3-(trifluoromethyl)-1H-pyrazol-5-yl]-4H,5H,6H-cyclopenta[c]thiophen-4-ol], the concentration for half-maximal inhibition (IC50) in assay [1] and in assay [2] was greater than 1000 nM in each case.
